In ChEMBL document CHEMBL1201862, “PubChem BioAssay data set” (2004):
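Where inhibition never reached the appropriate level, the endpoint shown equals the highest concentration tested. Otherwise, values were interpolated linearly from a five-concentration, 48-hour dose response in 96-well plates. GI50 marks 50% less growth.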 Activity calls are given as the source filed them. Rule as the data show it: active = GI50 up to about 1.1 µM and inactive = higher.

Legend:
Assay in all cases: NCI anticancer screen, dose series, 48 h
[1] = tested on: NCI-H23
[2] = tested on: Hs-578T
[3] = tested on: OVCAR-8
[4] = tested on: OVCAR-5
[5] = tested on: RXF 393
[6] = tested on: UACC-257
[7] = tested on: NCI-H226
[8] = tested on: MOLT-4
[9] = tested on: MDA-MB-435
[10] = tested on: ACHN
[11] = tested on: SF-268
[12] = tested on: HOP-92
[13] = tested on: EKVX
[14] = tested on: HL-60
[15] = tested on: A498
[16] = tested on: OVCAR-4
[17] = tested on: SK-MEL-2
[18] = tested on: SW-620
[19] = tested on: HCC 2998
[20] = tested on: RPMI-8226

SMILES	GI50 [1]	GI50 [2]	GI50 [3]	GI50 [4]	GI50 [5]	GI50 [6]	GI50 [7]	GI50 [8]	GI50 [9]	GI50 [10]	GI50 [11]	GI50 [12]	GI50 [13]	GI50 [14]	GI50 [15]	GI50 [16]	GI50 [17]	GI50 [18]	GI50 [19]	GI50 [20]
COc1cc(NCCC(=O)O)c2ncccc2c1	> 100 µM (inactive)	23.9 µM (inactive)	> 100 µM (inactive)	> 100 µM (inactive)	> 100 µM (inactive)	> 100 µM (inactive)	> 100 µM (inactive)	> 100 µM (inactive)	> 100 µM (inactive)	> 100 µM (inactive)	> 100 µM (inactive)	> 100 µM (inactive)	> 100 µM (inactive)	> 100 µM (inactive)	> 100 µM (inactive)	> 100 µM (inactive)	38.8 µM (inactive)	> 100 µM (inactive)		
Cc1cccc(C)c1NC(=S)NC=C1C(=O)c2ccccc2C1=O	16.6 µM (inactive)	10.5 µM (inactive)	1.44 µM (inactive)	39.7 µM (inactive)	4.3 µM (inactive)	12.4 µM (inactive)	46.1 µM (inactive)	0.75 µM (active)	7.5 µM (inactive)	5.19 µM (inactive)	7.52 µM (inactive)	12.5 µM (inactive)	9.82 µM (inactive)	2.45 µM (inactive)		10.5 µM (inactive)	16 µM (inactive)	6.85 µM (inactive)	5.86 µM (inactive)	3.07 µM (inactive)
Cn1c(=O)c2c(nc3n2CC(=O)N3CCCCl)n(C)c1=O	> 100 µM (inactive)	> 100 µM (inactive)	> 100 µM (inactive)	> 100 µM (inactive)		> 100 µM (inactive)	> 100 µM (inactive)	83.8 µM (inactive)	> 100 µM (inactive)	> 100 µM (inactive)	> 100 µM (inactive)	> 100 µM (inactive)	> 100 µM (inactive)	> 100 µM (inactive)	> 100 µM (inactive)	> 100 µM (inactive)	> 100 µM (inactive)	> 100 µM (inactive)	> 100 µM (inactive)	> 100 µM (inactive)
NC(=O)CCC(CCC(N)=O)(CCC(N)=O)[N+](=O)[O-]	> 100 µM (inactive)	> 100 µM (inactive)	> 100 µM (inactive)	> 100 µM (inactive)	> 100 µM (inactive)	> 100 µM (inactive)	25.4 µM (inactive)	> 100 µM (inactive)	> 100 µM (inactive)	> 100 µM (inactive)	> 100 µM (inactive)	> 100 µM (inactive)	> 100 µM (inactive)	> 100 µM (inactive)			> 100 µM (inactive)	> 100 µM (inactive)		> 100 µM (inactive)
CCN(CC)Cc1ccc(C(=S)Nc2ccc(C)cc2)s1	8.09 µM (inactive)	1.84 µM (inactive)	14.8 µM (inactive)	14.8 µM (inactive)		11.4 µM (inactive)		13 µM (inactive)	12.2 µM (inactive)	16 µM (inactive)	1.25 µM (inactive)		16.2 µM (inactive)	9.66 µM (inactive)	13.3 µM (inactive)	21.6 µM (inactive)	15.7 µM (inactive)	20.2 µM (inactive)	12.9 µM (inactive)	14.7 µM (inactive)
CCN(CC)CCOc1ccc(N2C(=O)c3cccc4cc([N+](=O)[O-])cc(c34)C2=O)cc1	11.6 µM (inactive)	14.7 µM (inactive)	10.9 µM (inactive)	2.88 µM (inactive)		13.1 µM (inactive)	3.79 µM (inactive)	1.67 µM (inactive)	11.5 µM (inactive)	3.1 µM (inactive)	10.9 µM (inactive)	20 µM (inactive)	16.3 µM (inactive)	11.8 µM (inactive)	9.62 µM (inactive)	16.3 µM (inactive)	16.3 µM (inactive)	7.48 µM (inactive)	11.6 µM (inactive)	
Clc1ccc2c(c1)CC1C[N+]3=C(CCCC3)C1=C2 (configuration not stated)	69 µM (inactive)	> 100 µM (inactive)	60.7 µM (inactive)	> 100 µM (inactive)	> 100 µM (inactive)	43.9 µM (inactive)	76.6 µM (inactive)	> 100 µM (inactive)	54.2 µM (inactive)	> 100 µM (inactive)	90.4 µM (inactive)	63.5 µM (inactive)	78.7 µM (inactive)	40 µM (inactive)	72.1 µM (inactive)	37.6 µM (inactive)	> 100 µM (inactive)	47.9 µM (inactive)		
CC1=NC(=Cc2cccc(Cl)c2)C(=O)N1n1c(-c2ccccc2)nc2ccccc2c1=O	25.6 µM (inactive)	24.5 µM (inactive)	43.4 µM (inactive)			28.6 µM (inactive)	90.4 µM (inactive)	27.9 µM (inactive)	41 µM (inactive)	24.5 µM (inactive)	65.3 µM (inactive)		21.2 µM (inactive)	22.8 µM (inactive)	26.4 µM (inactive)			55 µM (inactive)	24.5 µM (inactive)	30.2 µM (inactive)
COc1ccc(C(=O)N2CCN(c3ccc4c(c3)OCC(=O)N4)CC2)cc1OC	> 100 µM (inactive)	> 100 µM (inactive)	> 100 µM (inactive)	52 µM (inactive)		> 100 µM (inactive)	> 100 µM (inactive)	> 100 µM (inactive)	> 100 µM (inactive)	> 100 µM (inactive)	> 100 µM (inactive)	> 100 µM (inactive)	> 100 µM (inactive)	> 100 µM (inactive)		38.1 µM (inactive)	> 100 µM (inactive)	> 100 µM (inactive)	> 100 µM (inactive)	> 100 µM (inactive)
O=C1[C@@H]2C[C@@H](O)CN2C(=O)c2ccccc2N1CCCO		> 100 µM (inactive)	> 100 µM (inactive)	> 100 µM (inactive)		> 100 µM (inactive)	> 100 µM (inactive)	82 µM (inactive)	> 100 µM (inactive)	> 100 µM (inactive)	> 100 µM (inactive)	> 100 µM (inactive)	> 100 µM (inactive)		> 100 µM (inactive)		> 100 µM (inactive)	> 100 µM (inactive)		> 100 µM (inactive)
O=[N+]([O-])c1cccc2c(/N=N/c3ccc4ccccc4c3O)c(O)cc(S(=O)(=O)O)c12	33.3 µM (inactive)	> 100 µM (inactive)	21.1 µM (inactive)	34.8 µM (inactive)	38.4 µM (inactive)	31.8 µM (inactive)	22.6 µM (inactive)	5.21 µM (inactive)	23.8 µM (inactive)	22.5 µM (inactive)	23.6 µM (inactive)	55.7 µM (inactive)	79.3 µM (inactive)	4.21 µM (inactive)		57.9 µM (inactive)	22.6 µM (inactive)	31.6 µM (inactive)		> 100 µM (inactive)
O=S(=O)(O)c1ccc(O)c(/N=N/c2c(O)ccc3ccccc23)c1	> 100 µM (inactive)	> 100 µM (inactive)	> 100 µM (inactive)	> 100 µM (inactive)	> 100 µM (inactive)	> 100 µM (inactive)	> 100 µM (inactive)	> 100 µM (inactive)	> 100 µM (inactive)		> 100 µM (inactive)	> 100 µM (inactive)	> 100 µM (inactive)		> 100 µM (inactive)	> 100 µM (inactive)	> 100 µM (inactive)	> 100 µM (inactive)		> 100 µM (inactive)
C=C(C)C(=O)OC1C[C@H](COC(C)=O)C2CC=C(CO)C2C2OC(=O)C(=C)[C@H]12 (some centres not stated)	42.8 µM (inactive)	> 100 µM (inactive)	> 100 µM (inactive)	> 100 µM (inactive)		38.8 µM (inactive)	> 100 µM (inactive)	13.8 µM (inactive)	35.3 µM (inactive)	44.3 µM (inactive)	23.6 µM (inactive)		> 100 µM (inactive)	23.1 µM (inactive)	> 100 µM (inactive)		40.3 µM (inactive)	16.2 µM (inactive)	47.2 µM (inactive)	12.4 µM (inactive)
O=C(O)CC(Cc1ccccc1Cl)C(=O)O (configuration not stated)	> 100 µM (inactive)	> 100 µM (inactive)	> 100 µM (inactive)	> 100 µM (inactive)	> 100 µM (inactive)	> 100 µM (inactive)	> 100 µM (inactive)	> 100 µM (inactive)	> 100 µM (inactive)	> 100 µM (inactive)	> 100 µM (inactive)	> 100 µM (inactive)	> 100 µM (inactive)		> 100 µM (inactive)	> 100 µM (inactive)	> 100 µM (inactive)	> 100 µM (inactive)	> 100 µM (inactive)	> 100 µM (inactive)
COc1cc(-c2oc3c(OC)cc(OC)c(O)c3c(=O)c2OC)cc(OC)c1OC	36.3 µM (inactive)	2.93 µM (inactive)	5.21 µM (inactive)	> 100 µM (inactive)	8.28 µM (inactive)		> 100 µM (inactive)	> 100 µM (inactive)	> 100 µM (inactive)	8.49 µM (inactive)	6.95 µM (inactive)	15.6 µM (inactive)	> 100 µM (inactive)	> 100 µM (inactive)		2.23 µM (inactive)		6.28 µM (inactive)	> 100 µM (inactive)	> 100 µM (inactive)
